Read-outs that look alike come from different tables or passages of the source.
Legend:
in vivo = conditions: rat
HCT116 cells [1] = experiment: Histone acetylation by Western blotting; type: cell-based; conditions: HCT116, 1 h exposure; TSA 0.2 μM, others 2 μM (FIG. 1A)
HCT116 cells [2] = experiment: H3K18ac after 6 h pulse treatment and drug washout; type: cell-based; conditions: for time at which histone acetylation (H3K18ac) was induced: HCT116, 6 h pulse exposure; for time up to which induced acetylation was maintained: HCT116, 6 h pulse then drug washout, time after drug addition
[3] = rat, ref (6); cited from earlier work
HDAC1 [4] = target: T1, HDAC1 (Homo sapiens (Human), UniProt Q13547); conditions: Table 1, literature data; read-out: Inhibitory Potency (IC50) HDAC 1; cited from earlier work
HDAC4 = HDAC4 (Homo sapiens (Human), UniProt P56524); conditions: Table 1, literature data; read-out: Inhibitory Potency (IC50) HDAC 4; cited from earlier work
[5] = test system: Ad-MLP-Luc reporter in HCT116 cell line; experiment: Ad-MLP-Luc luciferase reporter activation; type: cell-based; conditions: HCT116, dose-dependent
HDAC2 [6] = target: T2, HDAC2 (Homo sapiens (Human), UniProt Q92769); experiment: HDAC-2 inhibition potency, luminescence readout; type: biochemical; conditions: Table 6, luminescence readout
Excerpt: (§1) Compounds were examined for their HDAC inhibitory activity and their effect on cancer cell viability (MDA-MB-231 cells).

HDAC3 [7] = target: T3, HDAC3 (Homo sapiens (Human), UniProt O15379); experiment: HDAC-3 inhibition potency, luminescence readout; type: biochemical; conditions: Table 6, luminescence readout
HDAC1 [8] = target: T1, HDAC1; experiment: HDAC-1 inhibition potency, luminescence readout; type: biochemical; conditions: Table 6, luminescence readout
Excerpt: as §1

MDA-MB-231 cells = experiment: Cancer cell viability (CellTiter-Glo); type: cell-based; conditions: for IC50: Homo sapiens, MDA-MB-231, read-out: Cancer cell (MDA-MB-231) killing IC50
HDAC7 = HDAC7 (Homo sapiens (Human), UniProt Q8WUI4); conditions: Table 1, literature data; read-out: Inhibitory Potency (IC50) HDAC 7; cited from earlier work
HDAC5 = HDAC5 (Homo sapiens (Human), UniProt Q9UQL6); conditions: Table 1, literature data; read-out: Inhibitory Potency (IC50) HDAC 5; cited from earlier work
HDAC8 [9] = target: T4, HDAC8 (Homo sapiens (Human), UniProt Q9BY41); conditions: Table 1, literature data; read-out: Inhibitory Potency (IC50) HDAC 8; cited from earlier work
HDAC9 = HDAC9 (Homo sapiens (Human), UniProt Q9UKV0); conditions: Table 1, literature data; read-out: Inhibitory Potency (IC50) HDAC 9; cited from earlier work
HDAC10 = HDAC10 (Homo sapiens (Human), UniProt Q969S8); conditions: Table 1, literature data; read-out: Inhibitory Potency (IC50) HDAC 10; cited from earlier work
HDAC1 [10] = target: T1, HDAC1; experiment: In vitro HDAC1 inhibition of HTS hits (HDAC I/II-Glo reagents); type: biochemical; conditions: HTS follow-up
HDAC2 [11] = target: T2, HDAC2; experiment: HDAC2 in vitro inhibition, dose response; type: biochemical; conditions: Table 2; read-out: HDAC 2 IC50
HDAC1 [12] = target: T1, HDAC1; experiment: HDAC1 in vitro inhibition, dose response; type: biochemical; conditions: Table 2; read-out: HDAC 1 IC50
HDAC8 [13] = target: T4, HDAC8; experiment: HDAC8 in vitro inhibition, dose response; type: biochemical; conditions: Table 2; read-out: HDAC 8 IC50
HDAC3 [14] = target: T3, HDAC3; experiment: HDAC3 in vitro inhibition, dose response; type: biochemical; conditions: Table 2; read-out: HDAC 3 IC50
HDAC6 = HDAC6 (Homo sapiens (Human), UniProt Q9UBN7); experiment: HDAC6 in vitro inhibition, dose response; type: biochemical; conditions: Table 2; read-out: HDAC 6 IC50

T3 sequence (O15379 whole entry): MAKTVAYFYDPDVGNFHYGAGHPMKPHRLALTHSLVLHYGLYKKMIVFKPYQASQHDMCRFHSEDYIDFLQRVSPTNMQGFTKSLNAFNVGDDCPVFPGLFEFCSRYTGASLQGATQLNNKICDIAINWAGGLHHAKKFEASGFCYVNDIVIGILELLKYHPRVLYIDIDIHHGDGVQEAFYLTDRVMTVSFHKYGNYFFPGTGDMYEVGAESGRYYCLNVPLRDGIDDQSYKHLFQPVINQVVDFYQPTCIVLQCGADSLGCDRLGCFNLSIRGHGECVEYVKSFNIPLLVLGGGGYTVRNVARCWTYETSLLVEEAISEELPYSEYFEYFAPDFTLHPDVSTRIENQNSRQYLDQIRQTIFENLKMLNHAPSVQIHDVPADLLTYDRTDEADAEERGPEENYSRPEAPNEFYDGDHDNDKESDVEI
T3 sequence (Q9Y618 395-489 partner): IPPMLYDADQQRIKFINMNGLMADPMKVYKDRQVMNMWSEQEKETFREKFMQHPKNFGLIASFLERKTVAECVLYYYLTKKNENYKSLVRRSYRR
T1 sequence (Q13547 whole entry): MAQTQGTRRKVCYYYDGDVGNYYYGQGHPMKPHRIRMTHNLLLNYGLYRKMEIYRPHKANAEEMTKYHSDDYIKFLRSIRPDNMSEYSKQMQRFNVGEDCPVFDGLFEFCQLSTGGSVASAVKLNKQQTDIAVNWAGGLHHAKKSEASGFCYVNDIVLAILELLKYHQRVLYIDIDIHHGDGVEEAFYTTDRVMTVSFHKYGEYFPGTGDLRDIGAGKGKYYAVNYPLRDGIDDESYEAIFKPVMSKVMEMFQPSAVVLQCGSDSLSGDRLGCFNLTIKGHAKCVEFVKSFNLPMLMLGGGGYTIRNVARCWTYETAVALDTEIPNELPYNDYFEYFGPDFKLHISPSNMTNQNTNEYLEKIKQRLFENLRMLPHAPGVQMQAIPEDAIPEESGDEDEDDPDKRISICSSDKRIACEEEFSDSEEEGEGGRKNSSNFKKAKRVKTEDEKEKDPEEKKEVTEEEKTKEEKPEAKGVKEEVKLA
T2 sequence (Q92769 whole entry): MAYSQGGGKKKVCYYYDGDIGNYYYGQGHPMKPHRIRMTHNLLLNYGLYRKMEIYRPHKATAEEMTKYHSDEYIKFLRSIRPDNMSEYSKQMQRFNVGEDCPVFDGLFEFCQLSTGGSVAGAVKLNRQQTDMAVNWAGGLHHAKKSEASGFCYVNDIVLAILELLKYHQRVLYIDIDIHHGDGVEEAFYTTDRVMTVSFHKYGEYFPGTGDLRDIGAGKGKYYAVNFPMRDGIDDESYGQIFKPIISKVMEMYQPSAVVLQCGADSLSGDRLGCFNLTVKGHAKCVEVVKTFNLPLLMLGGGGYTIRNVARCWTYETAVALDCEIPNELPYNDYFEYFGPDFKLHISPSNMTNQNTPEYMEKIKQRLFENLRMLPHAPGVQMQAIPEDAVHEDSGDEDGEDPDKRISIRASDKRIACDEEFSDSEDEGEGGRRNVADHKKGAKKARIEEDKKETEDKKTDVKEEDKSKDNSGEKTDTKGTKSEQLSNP
Chain of HDAC4 (P56524 whole entry): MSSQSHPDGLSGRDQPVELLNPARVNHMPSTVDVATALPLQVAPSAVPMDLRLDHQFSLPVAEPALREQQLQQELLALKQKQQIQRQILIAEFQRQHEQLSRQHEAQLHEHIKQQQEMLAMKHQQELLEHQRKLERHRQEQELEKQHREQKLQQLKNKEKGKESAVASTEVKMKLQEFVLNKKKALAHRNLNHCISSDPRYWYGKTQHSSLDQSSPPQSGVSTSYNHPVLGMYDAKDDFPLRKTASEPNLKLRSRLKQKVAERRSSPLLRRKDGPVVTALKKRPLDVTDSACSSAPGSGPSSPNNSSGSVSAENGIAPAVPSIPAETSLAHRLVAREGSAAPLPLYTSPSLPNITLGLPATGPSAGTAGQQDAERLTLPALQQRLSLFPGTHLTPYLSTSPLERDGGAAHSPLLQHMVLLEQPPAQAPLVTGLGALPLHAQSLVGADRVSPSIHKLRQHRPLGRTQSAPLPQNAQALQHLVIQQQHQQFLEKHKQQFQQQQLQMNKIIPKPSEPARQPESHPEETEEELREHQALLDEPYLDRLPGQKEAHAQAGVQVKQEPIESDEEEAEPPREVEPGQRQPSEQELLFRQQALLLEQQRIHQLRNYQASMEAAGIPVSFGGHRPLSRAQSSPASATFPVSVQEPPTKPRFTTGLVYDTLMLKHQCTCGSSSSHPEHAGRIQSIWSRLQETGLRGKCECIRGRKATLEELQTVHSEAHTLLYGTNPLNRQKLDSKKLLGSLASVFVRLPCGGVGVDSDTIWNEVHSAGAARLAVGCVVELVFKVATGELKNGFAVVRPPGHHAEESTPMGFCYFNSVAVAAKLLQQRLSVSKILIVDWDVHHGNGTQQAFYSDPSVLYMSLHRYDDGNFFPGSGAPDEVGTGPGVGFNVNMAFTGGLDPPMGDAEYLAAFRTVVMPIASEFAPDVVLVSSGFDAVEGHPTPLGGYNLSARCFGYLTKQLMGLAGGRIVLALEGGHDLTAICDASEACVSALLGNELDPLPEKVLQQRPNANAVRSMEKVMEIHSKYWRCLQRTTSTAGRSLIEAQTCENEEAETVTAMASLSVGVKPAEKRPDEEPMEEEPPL
T4 sequence (Q9BY41 whole entry): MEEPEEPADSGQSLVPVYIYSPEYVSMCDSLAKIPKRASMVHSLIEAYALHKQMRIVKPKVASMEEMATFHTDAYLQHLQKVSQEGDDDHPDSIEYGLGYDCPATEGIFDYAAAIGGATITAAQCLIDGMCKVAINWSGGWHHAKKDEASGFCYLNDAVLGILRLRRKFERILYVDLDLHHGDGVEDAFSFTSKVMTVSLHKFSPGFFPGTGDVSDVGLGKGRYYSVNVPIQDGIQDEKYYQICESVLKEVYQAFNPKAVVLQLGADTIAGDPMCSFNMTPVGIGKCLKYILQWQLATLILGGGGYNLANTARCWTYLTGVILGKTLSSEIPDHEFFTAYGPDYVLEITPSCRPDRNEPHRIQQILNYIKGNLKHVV
Chain of HDAC7 (Q8WUI4 whole entry): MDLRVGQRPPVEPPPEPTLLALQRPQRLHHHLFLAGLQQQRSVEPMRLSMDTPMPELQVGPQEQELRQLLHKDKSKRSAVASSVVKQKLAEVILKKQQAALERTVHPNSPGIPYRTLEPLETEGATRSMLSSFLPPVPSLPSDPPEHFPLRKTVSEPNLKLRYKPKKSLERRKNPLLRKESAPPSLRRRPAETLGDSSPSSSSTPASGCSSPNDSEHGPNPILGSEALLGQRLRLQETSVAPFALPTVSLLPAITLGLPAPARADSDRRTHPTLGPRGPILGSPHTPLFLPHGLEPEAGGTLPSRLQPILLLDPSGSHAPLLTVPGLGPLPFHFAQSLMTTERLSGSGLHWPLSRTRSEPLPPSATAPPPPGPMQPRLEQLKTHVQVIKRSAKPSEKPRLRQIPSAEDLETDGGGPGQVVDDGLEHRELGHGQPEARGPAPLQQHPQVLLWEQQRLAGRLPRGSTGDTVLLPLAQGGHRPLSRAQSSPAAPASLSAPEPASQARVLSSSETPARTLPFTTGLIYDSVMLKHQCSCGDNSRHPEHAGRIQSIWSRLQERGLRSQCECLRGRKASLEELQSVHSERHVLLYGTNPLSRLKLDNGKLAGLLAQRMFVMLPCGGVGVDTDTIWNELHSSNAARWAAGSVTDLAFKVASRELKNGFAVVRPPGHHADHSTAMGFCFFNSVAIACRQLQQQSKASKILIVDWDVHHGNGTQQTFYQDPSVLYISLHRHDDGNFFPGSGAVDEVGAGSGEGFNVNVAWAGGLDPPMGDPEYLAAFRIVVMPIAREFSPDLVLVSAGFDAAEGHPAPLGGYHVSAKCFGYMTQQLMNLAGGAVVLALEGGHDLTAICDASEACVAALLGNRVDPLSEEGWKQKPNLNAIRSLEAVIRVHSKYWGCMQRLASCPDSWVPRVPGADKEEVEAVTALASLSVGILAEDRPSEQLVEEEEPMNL
Chain of HDAC10 (Q969S8 whole entry): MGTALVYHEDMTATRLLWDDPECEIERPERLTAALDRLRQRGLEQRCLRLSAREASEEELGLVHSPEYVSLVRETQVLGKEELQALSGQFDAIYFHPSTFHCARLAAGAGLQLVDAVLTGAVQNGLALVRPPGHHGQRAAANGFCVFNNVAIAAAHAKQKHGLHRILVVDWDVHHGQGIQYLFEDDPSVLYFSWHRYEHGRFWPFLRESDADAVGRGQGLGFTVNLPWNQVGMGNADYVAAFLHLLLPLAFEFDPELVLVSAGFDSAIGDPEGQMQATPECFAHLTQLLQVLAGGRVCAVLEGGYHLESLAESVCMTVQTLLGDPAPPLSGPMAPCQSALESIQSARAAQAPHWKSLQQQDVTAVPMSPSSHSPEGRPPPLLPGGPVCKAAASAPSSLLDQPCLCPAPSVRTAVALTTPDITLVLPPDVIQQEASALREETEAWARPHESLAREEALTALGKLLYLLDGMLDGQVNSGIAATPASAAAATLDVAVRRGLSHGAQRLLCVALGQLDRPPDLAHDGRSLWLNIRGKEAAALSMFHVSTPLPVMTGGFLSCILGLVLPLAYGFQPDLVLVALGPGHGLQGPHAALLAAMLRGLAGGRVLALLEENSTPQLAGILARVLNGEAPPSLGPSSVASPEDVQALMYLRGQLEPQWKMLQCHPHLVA

In the case of `Nc1ccccc1NC(=O)c1ccc(CNC(=O)OCc2cccnc2)cc1` [MS-275, entinostat], the MTD (in vivo) is reported as about 1.5 mg/kg, the “accumulation of acetylated histones” value (HCT116 cells [1]) is reported as “only slightly induced acetylation at several sites but failed to induce acetylation at most sites” and the “time at which histone acetylation (H3K18ac) was induced” value (HCT116 cells [2]) is reported as 18 h. The “time up to which induced acetylation was maintained” value (HCT116 cells [2]) was “at least 48 h” and the MTD [3] was 3.1 mg/kg.

For `C/C=C1\NC(=O)[C@H]2CSSCC/C=C/[C@H](CC(=O)N[C@H](C(C)C)C(=O)N2)OC(=O)[C@H](C(C)C)NC1=O` [Romidepsin, romidepsin], the IC50 (HDAC1 [4]) is given as 2 nM, the IC50 (HDAC4) is given as 30 nM and the “time at which histone acetylation (H3K18ac) was induced” value (HCT116 cells [2]) is given as “quickly induced acetylation”. The “time up to which induced acetylation was maintained” value (HCT116 cells [2]) was “up to 24 h” and the Ad-MLP-Luc reporter activity [5] was “dramatically increased”.

For `CCCCNNC(=O)c1ccccc1-c1ccccc1` [SR-3459], the “HDAC inhibition potency (IC50) HDAC2” value (HDAC2 [6]) was “No inhibition”, the “HDAC inhibition potency (IC50) HDAC3” value (HDAC3 [7]) was “No inhibition” and the “HDAC inhibition potency (IC50) HDAC1” value (HDAC1 [8]) was “No inhibition”. The IC50 (MDA-MB-231 cells) was over 100000 nM and the “effect on cancer cell viability” value (MDA-MB-231 cells; MDA-MB-231) was “does not impair cancer cell viability”.

For `CC(=O)Nc1ccc(C(=O)Nc2cc(-c3cccs3)ccc2N)cc1` [Cpd60], the IC50 (HDAC7) is given as over 30000 nM, the IC50 (HDAC5) is given as over 30000 nM and the IC50 (HDAC8 [9]) is given as over 30000 nM. For the same compound, the IC50 (HDAC9) was over 30000 nM, the IC50 (HDAC4) was over 30000 nM and the IC50 (HDAC10) was 3400 nM.

With `O=C(CCCCCCC(=O)Nc1ccccc1)NO` [SAHA, vorinostat, reference compound] the “potency of HDAC1 inhibition in vitro” value (HDAC1 [10]) was under 10000 nM.

Work on `CCCCNNC(=O)c1ccc(-c2cccc(F)c2F)cc1` [SR-4370, N′-butyl-2′,3′-difluorobiphenyl-4-carbohydrazide] yielded an IC50 (HDAC2 [11]) of 580 nM, an IC50 (HDAC1 [12]) of 130 nM and an IC50 (HDAC2 [6]) of 580 nM. The IC50 (HDAC3 [7]) was 6 nM, the IC50 (HDAC8 [13]) was 2300 nM and the IC50 (HDAC1 [8]) was 130 nM. It also gave an IC50 (HDAC3 [14]) of 6 nM, an IC50 (HDAC6) of 3700 nM and an IC50 (MDA-MB-231 cells) of 12600 nM.
